Experimental data: patent US20250376479A1, “EXATECAN DERIVATIVES AND USES THEREOF” (priority 2024, published 2025)

Key:
[1] = Membrane permeability test (Caco-2 monolayer); format: in vitro ADME; settings: human, Caco-2, pH 7.4
Experimental: Caco-2 cells purchased from ATCC were seeded onto 0.4 μm pore polycarbonate membranes (PC) in 96-well Corning Insert plates at 3.5×10^4 cells/cm^2, and refreshed medium every 4˜5 days until to the 21st to 28th day for confluent cell monolayer formation.
The transport buffer in the study was HBSS with 10.0 mM HEPES at pH 7.40±0.05. Each test compound was tested at 2.00 μM in the presence or absence of 1.00 μM zosuquidar bi-directionally in duplicate. Digoxin was tested at 10.0 μM in the presence or absence of 1.00 μM zosuquidar bi-directionally in duplicate, while nadolol and metoprolol were tested at 2.00 μM in the absence of zosuquidar in A to B direction in duplicate. Final DMSO concentration was adjusted to less than 1%. The plate was incubated for 2 hours in CO2 incubator at 37.0° C., with 5% CO2 at saturated humidity without shaking. And all samples after mixed with acetonitrile containing internal standard were centrifuged at 3220×g for 10 min. Concentrations of test compounds in starting solution, donor solution and receiver solution were quantified by LC-MS/MS methodologies, using peak area ratio of analyte/internal standard. And permeation of lucifer yellow through the monolayer was measured to evaluate the cellular integrity.
The apparent permeability coefficient Papp (cm/s) was calculated using the equation: […]
where dCr/dt is the cumulative concentration of compound in the receiver chamber as a function of time; Vr is the solution volume in the receiver chamber (0.0750 mL on the apical side, 0.250 mL on the basolateral side); A is the surface area for the transport, i.e., 0.143 cm2 for the area of the monolayer; C0 is the initial concentration in the donor chamber.

NCI-H524 = experiment: Cytotoxicity test, luminescent cell viability; format: cell-based; settings: Homo sapiens; NCI-H524 (SCLC), 72-hour incubation
Description: (§1) Cytotoxicity of compounds was investigated using SHP77 (SCLC ATCC No. CRL-2195), NCI-H82 (SCLC, Jennio-bio No. JNO-22126A), NCI-H524 (SCLC, Pricella NO. CL-0403), NCI-H226 (Lung cancer, Pricella NO. CL-0396), NCI-H460 (LCLC, Pricella NO. CL-0299), OVCAR3 (Ovarian cancer, ATCC No. HTB-161), OV90 (Ovarian cancer, ATCC No. CRL-11732), LS1034 (Colon carcinoma, cobioer No. CBP60013), HT55 (Colon carcinoma, cobioer No. CBP60012), MDA-MB-468 (Breast cancer, ATCC No.htb-132) and NCI-N87 (Stomach cancer, ATCC No.CRL-5822). In brief, 5,000 cells/well of cancer cells were platted in white 96-well assay plates with flat clear bottom (Cat. No. BS-MP-96W, Biosharp) (excluding edge wells, which contained medium or PBS only) in 90 μL basic culture medium and were grown at 37° C. in a humidified incubator at 5% CO2 atmosphere. After incubation overnight, each compound was added to the respective wells in an amount of 10 μl of 10× concentrate tests from 100 nM to 0.015 nM. After additional 72-hour incubation, plates were removed from incubator and equilibrated to room temperature. After approximately 30 mins, 50 μL of Cell counting-lite 2.0 Luminescent Cell Viability Assay (Cat. No. G7573, Promega) were added to each well. After shaking the plates at 450 rpm for 3 mins followed by 10-min incubation without shaking, luminescence was measured on the Envision plate reader (Equipment No. 2104, PerkinElmer) with integration time of 250 ms per well. Curves of luminescence versus concentration (nM) were fitted with GraphPad Prism Software.

NCI-H226 = experiment: Cytotoxicity test, luminescent cell viability; format: cell-based; settings: Homo sapiens; NCI-H226 (Lung cancer), 72-hour incubation
Description: as §1

OVCAR3 = experiment: Cytotoxicity test, luminescent cell viability; format: cell-based; settings: Homo sapiens, OVCAR-3; OVCAR3 (Ovarian cancer), 72-hour incubation
Description: as §1

SHP77 = experiment: Cytotoxicity test, luminescent cell viability; format: cell-based; settings: Homo sapiens; SHP77 (SCLC), 72-hour incubation
Description: as §1

LS1034 = experiment: Cytotoxicity test, luminescent cell viability; format: cell-based; settings: Homo sapiens, LS-1034; LS1034 (Colon carcinoma), 72-hour incubation
Description: as §1

NCI-H82 = experiment: Cytotoxicity test, luminescent cell viability; format: cell-based; settings: Homo sapiens; NCI-H82 (SCLC), 72-hour incubation
Description: as §1

NCI-H460 = experiment: Cytotoxicity test, luminescent cell viability; format: cell-based; settings: Homo sapiens; NCI-H460 (LCLC), 72-hour incubation
Description: as §1

HT55 = experiment: Cytotoxicity test, luminescent cell viability; format: cell-based; settings: Homo sapiens; HT55 (Colon carcinoma), 72-hour incubation
Description: as §1

OV90 = experiment: Cytotoxicity test, luminescent cell viability; format: cell-based; settings: Homo sapiens, OV-90; OV90 (Ovarian cancer), 72-hour incubation
Description: as §1

MDA-MB-468 = experiment: Cytotoxicity test, luminescent cell viability; format: cell-based; settings: Homo sapiens; MDA-MB-468 (Breast cancer), 72-hour incubation
Description: as §1

NCI-N87 = experiment: Cytotoxicity test, luminescent cell viability; format: cell-based; settings: Homo sapiens; NCI-N87 (Stomach cancer), 72-hour incubation; read-out: IC50 NC-N87
Description: as §1

SMILES: CC[C@@]1(O)C(=O)OCc2c1cc1n(c2=O)Cc2c-1nc1cc(F)c(C)c3c1c2[C@H](NC(=O)CN(C)C)CC3 [Compound 2]
- Papp A→B at 2 h, 2 μM [1]: 0.199 ×10⁻⁶ cm/s
- IC50 (NCI-H524): 40.4 nM
- IC50 (NCI-H226): 21 nM
- IC50 (OVCAR3): 208 nM
- IC50 (SHP77): 301 nM
- IC50 (LS1034): 205 nM
- IC50 (NCI-H82): 154 nM
- IC50 (NCI-H460): 15.5 nM
- IC50 (HT55): 315 nM
- IC50 (OV90): 15.2 nM
- IC50 (MDA-MB-468): 10.8 nM
- IC50 (NCI-N87): 13 nM

SMILES: CC[C@@]1(O)C(=O)OCc2c1cc1n(c2=O)Cc2c-1nc1cc(F)c(C)c3c1c2[C@H](NC(=O)C(C)C)CC3 [Compound 10]
- Papp A→B at 2 h, 2 μM [1]: 0.358 ×10⁻⁶ cm/s
- IC50 (NCI-H524): 17.9 nM
- IC50 (NCI-H226): 5.1 nM
- IC50 (OVCAR3): 68.1 nM
- IC50 (SHP77): 101 nM
- IC50 (LS1034): 114 nM
- IC50 (NCI-H82): 61.7 nM
- IC50 (NCI-H460): 7.4 nM
- IC50 (HT55): 69.6 nM
- IC50 (OV90): 9.8 nM
- IC50 (MDA-MB-468): 2.9 nM
- IC50 (NCI-N87): 5.2 nM

SMILES: CC[C@@]1(O)C(=O)OCc2c1cc1n(c2=O)Cc2c-1nc1cc(F)c(C)c3c1c2[C@H](NC(=O)C1CCC1)CC3 [Compound 6]
- Papp A→B at 2 h, 2 μM [1]: 0.264 ×10⁻⁶ cm/s
- IC50 (NCI-H524): 9.9 nM
- IC50 (NCI-H226): 3.8 nM
- IC50 (OVCAR3): 89.3 nM
- IC50 (SHP77): 68 nM
- IC50 (LS1034): 55.3 nM
- IC50 (NCI-H82): 57.3 nM
- IC50 (NCI-H460): 6.8 nM
- IC50 (HT55): 215 nM
- IC50 (OV90): 8.9 nM
- IC50 (MDA-MB-468): 2.5 nM
- IC50 (NCI-N87): 3.5 nM

SMILES: CC[C@@]1(O)C(=O)OCc2c1cc1n(c2=O)Cc2c-1nc1cc(F)c(C)c3c1c2[C@H](NC(=O)C1CCCO1)CC3 (some centres unmarked) [Compound 7]
- Papp A→B at 2 h, 2 μM [1]: 0.56 ×10⁻⁶ cm/s
- IC50 (NCI-H524): 39.5 nM
- IC50 (NCI-H226): 17.9 nM
- IC50 (OVCAR3): 144 nM
- IC50 (SHP77): 236 nM
- IC50 (LS1034): 170 nM
- IC50 (NCI-H82): 171 nM
- IC50 (NCI-H460): 11.2 nM
- IC50 (HT55): 104 nM
- IC50 (OV90): 26 nM
- IC50 (MDA-MB-468): 4.8 nM
- IC50 (NCI-N87): 7.4 nM

SMILES: CC[C@@]1(O)C(=O)OCc2c1cc1n(c2=O)Cc2c-1nc1cc(F)c(C)c3c1c2[C@H](NC(=O)C1COC1)CC3 [Compound 4]
- Papp A→B at 2 h, 2 μM [1]: 0.026 ×10⁻⁶ cm/s
- IC50 (NCI-H524): 90.6 nM
- IC50 (NCI-H226): 44.6 nM
- IC50 (OVCAR3): 395 nM
- IC50 (SHP77): 655 nM
- IC50 (LS1034): 249 nM
- IC50 (NCI-H82): 1500 nM
- IC50 (NCI-H460): 31.2 nM
- IC50 (HT55): 349 nM
- IC50 (OV90): 76 nM
- IC50 (MDA-MB-468): 6.7 nM
- IC50 (NCI-N87): 29.6 nM

SMILES: CC[C@@]1(O)C(=O)OCc2c1cc1n(c2=O)Cc2c-1nc1cc(F)c(C)c3c1c2[C@H](NC(=O)CCOC)CC3 [Compound 5]
- Papp A→B at 2 h, 2 μM [1]: 0.105 ×10⁻⁶ cm/s
- IC50 (NCI-H524): 21.5 nM
- IC50 (NCI-H226): 9.8 nM
- IC50 (OVCAR3): 270 nM
- IC50 (SHP77): 202 nM
- IC50 (LS1034): 158 nM
- IC50 (NCI-H82): 288 nM
- IC50 (NCI-H460): 19.4 nM
- IC50 (HT55): 192 nM
- IC50 (OV90): 9.6 nM
- IC50 (MDA-MB-468): 5.1 nM
- IC50 (NCI-N87): 16.8 nM

SMILES: CC[C@@]1(O)C(=O)OCc2c1cc1n(c2=O)Cc2c-1nc1cc(F)c(C)c3c1c2[C@H](NC(=O)C1CC1)CC3 [Compound 3]
- Papp A→B at 2 h, 2 μM [1]: 0.279 ×10⁻⁶ cm/s
- IC50 (NCI-H524): 11.3 nM
- IC50 (NCI-H226): 3.6 nM
- IC50 (OVCAR3): 91.2 nM
- IC50 (SHP77): 60 nM
- IC50 (LS1034): 41.7 nM
- IC50 (NCI-H82): 50.2 nM
- IC50 (NCI-H460): 8.9 nM
- IC50 (HT55): 68.1 nM
- IC50 (OV90): 5.1 nM
- IC50 (MDA-MB-468): 2.1 nM
- IC50 (NCI-N87): 5.3 nM

SMILES: CC[C@@]1(O)C(=O)OCc2c1cc1n(c2=O)Cc2c-1nc1cc(F)c(C)c3c1c2[C@H](NC(=O)CC(C)C)CC3 [Compound 8]
- IC50 (NCI-H524): 21 nM
- IC50 (NCI-H226): 6 nM
- IC50 (OVCAR3): 95.7 nM
- IC50 (SHP77): 156 nM
- IC50 (LS1034): 159 nM
- IC50 (NCI-H82): 53.8 nM
- IC50 (NCI-H460): 4.5 nM
- IC50 (HT55): 110 nM
- IC50 (OV90): 17.8 nM
- IC50 (MDA-MB-468): 2.1 nM
- IC50 (NCI-N87): 4.7 nM

SMILES: CCCCC(=O)N[C@@H]1CCc2c(C)c(F)cc3nc4c(c1c23)Cn1c-4cc2c(c1=O)COC(=O)[C@]2(O)CC [Compound 1]
- Papp A→B at 2 h, 2 μM [1]: 0.365 ×10⁻⁶ cm/s
- IC50 (NCI-H524): 4.4 nM
- IC50 (NCI-H226): 4.8 nM
- IC50 (OVCAR3): 92.9 nM
- IC50 (SHP77): 45.7 nM
- IC50 (LS1034): 63.5 nM
- IC50 (NCI-H82): 96 nM
- IC50 (NCI-H460): 10.2 nM
- IC50 (HT55): 130 nM
- IC50 (OV90): 3.9 nM
- IC50 (MDA-MB-468): 2.5 nM
- IC50 (NCI-N87): 6.2 nM
